Laboratory results taken from article PMC12090182, “Repurposing of the RIPK1-Selective Benzo[1,4]oxazepin-4-one Scaffold for the Development of a Type III LIMK1/2 Inhibitor” (ACS Chemical Biology, 2025).
Like-named read-outs stand apart in the source and are kept apart here.

Experiments:
Experiment in all cases: biochemical
Type in all cases: binding
[1] = target: 468 kinases including some pathogenic mutants (Homo sapiens, UniProt Q8NE63); conditions: HIPK4 (Entrez HIPK4), 100 nM; read-out: Percent Control
[2] = target: 468 kinases including some pathogenic mutants (Homo sapiens, UniProt P36896); conditions: ACVR1B (Entrez ACVR1B), 100 nM; read-out: Percent Control
[3] = target: 468 kinases including some pathogenic mutants (Homo sapiens, UniProt P21860); conditions: ERBB3 (Entrez ERBB3), 100 nM; read-out: Percent Control
[4] = target: 468 kinases including some pathogenic mutants (Homo sapiens, UniProt P00519, H396P)
[5] = target: 468 kinases including some pathogenic mutants (Homo sapiens, UniProt Q6XUX3); conditions: RIPK5 (Entrez DSTYK), 1000 nM; read-out: Percent Control
[6] = target: 468 kinases including some pathogenic mutants (Homo sapiens, UniProt P35590); conditions: TIE1 (Entrez TIE1), 100 nM; read-out: Percent Control
[7] = target: 468 kinases including some pathogenic mutants (Homo sapiens, UniProt Q99558); conditions: NIK (Entrez MAP3K14), 1000 nM; read-out: Percent Control
[8] = target: 468 kinases including some pathogenic mutants (Homo sapiens, UniProt P53355); conditions: DAPK1 (Entrez DAPK1), 100 nM; read-out: Percent Control
[9] = target: 468 kinases including some pathogenic mutants (Homo sapiens, UniProt O15197); conditions: EPHB6 (Entrez EPHB6), 100 nM; read-out: Percent Control
[10] = target: 468 kinases including some pathogenic mutants (Homo sapiens, UniProt O94921); conditions: PFTK1 (Entrez CDK14), 100 nM; read-out: Percent Control
[11] = target: 468 kinases including some pathogenic mutants (Homo sapiens, UniProt Q13043); conditions: MST1 (Entrez STK4), 100 nM; read-out: Percent Control
[12] = target: 468 kinases including some pathogenic mutants (Homo sapiens, UniProt Q8TDX7); conditions: NEK7 (Entrez NEK7), 100 nM; read-out: Percent Control
[13] = target: 468 kinases including some pathogenic mutants (Homo sapiens, UniProt Q9P286); conditions: PAK7 (Entrez PAK7), 100 nM; read-out: Percent Control
[14] = target: 468 kinases including some pathogenic mutants (Homo sapiens, UniProt P00533, G719C); conditions: read-out: Percent Control
[15] = target: 468 kinases including some pathogenic mutants (Homo sapiens, UniProt P51957); conditions: NEK4 (Entrez NEK4), 1000 nM; read-out: Percent Control
[16] = target: 468 kinases including some pathogenic mutants (Homo sapiens, UniProt Q9UKI8); conditions: TLK1 (Entrez TLK1), 1000 nM; read-out: Percent Control
[17] = target: 468 kinases including some pathogenic mutants (Homo sapiens, UniProt Q9UQB9); conditions: AURKC (Entrez AURKC), 100 nM; read-out: Percent Control
[18] = target: 468 kinases including some pathogenic mutants (Homo sapiens, UniProt Q86UE8); conditions: TLK2 (Entrez TLK2), 1000 nM; read-out: Percent Control
[19] = target: 468 kinases including some pathogenic mutants (Homo sapiens, UniProt Q15303); conditions: ERBB4 (Entrez ERBB4), 100 nM; read-out: Percent Control
[20] = target: 468 kinases including some pathogenic mutants (Homo sapiens, UniProt P51956); conditions: NEK3 (Entrez NEK3), 100 nM; read-out: Percent Control
[21] = target: 468 kinases including some pathogenic mutants (Homo sapiens, UniProt P36888, N841I); conditions: read-out: Percent Control
[22] = target: 468 kinases including some pathogenic mutants (Homo sapiens, UniProt Q8IY84); conditions: NIM1 (Entrez MGC42105), 1000 nM; read-out: Percent Control
[23] = target: 468 kinases including some pathogenic mutants (Homo sapiens, UniProt Q86UX6); conditions: YANK3 (Entrez STK32C), 100 nM; read-out: Percent Control
[24] = target: 468 kinases including some pathogenic mutants (Homo sapiens, UniProt O75676); conditions: 1000 nM, read-out: Percent Control
[25] = target: 468 kinases including some pathogenic mutants (Homo sapiens, UniProt Q13153); conditions: PAK1 (Entrez PAK1), 100 nM; read-out: Percent Control
[26] = target: 468 kinases including some pathogenic mutants (Homo sapiens, UniProt Q9NWZ3); conditions: IRAK4 (Entrez IRAK4), 1000 nM; read-out: Percent Control
[27] = target: 468 kinases including some pathogenic mutants (Homo sapiens, UniProt P50750); conditions: CDK9 (Entrez CDK9), 100 nM; read-out: Percent Control
[28] = target: 468 kinases including some pathogenic mutants (Homo sapiens, UniProt P54762); conditions: EPHB1 (Entrez EPHB1), 100 nM; read-out: Percent Control

Sequence of 468 kinases including some pathogenic mutants (Homo sapiens, UniProt O75676) (O75676 whole entry, change not shown): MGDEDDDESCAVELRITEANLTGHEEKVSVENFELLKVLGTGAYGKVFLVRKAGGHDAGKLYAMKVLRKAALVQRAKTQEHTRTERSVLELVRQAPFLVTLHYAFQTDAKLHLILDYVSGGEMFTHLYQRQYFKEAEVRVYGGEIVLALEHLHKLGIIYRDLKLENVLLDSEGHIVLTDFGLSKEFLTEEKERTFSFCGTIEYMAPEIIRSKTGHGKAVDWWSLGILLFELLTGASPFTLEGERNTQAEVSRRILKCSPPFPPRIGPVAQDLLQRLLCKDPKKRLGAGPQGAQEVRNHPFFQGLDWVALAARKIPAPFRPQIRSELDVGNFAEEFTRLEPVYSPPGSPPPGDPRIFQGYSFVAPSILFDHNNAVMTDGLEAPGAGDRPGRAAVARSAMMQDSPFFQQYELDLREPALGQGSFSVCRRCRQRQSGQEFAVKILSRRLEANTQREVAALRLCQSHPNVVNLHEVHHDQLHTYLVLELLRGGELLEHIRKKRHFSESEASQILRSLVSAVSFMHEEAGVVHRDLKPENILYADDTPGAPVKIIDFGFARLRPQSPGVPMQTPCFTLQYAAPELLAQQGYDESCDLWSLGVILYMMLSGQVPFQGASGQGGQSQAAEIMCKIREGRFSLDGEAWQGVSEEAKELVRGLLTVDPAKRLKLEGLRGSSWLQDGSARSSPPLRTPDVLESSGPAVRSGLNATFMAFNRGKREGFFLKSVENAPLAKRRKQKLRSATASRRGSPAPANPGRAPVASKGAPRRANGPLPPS
Sequence of 468 kinases including some pathogenic mutants (Homo sapiens, UniProt Q9P286) (Q9P286 whole entry, stated change not applied): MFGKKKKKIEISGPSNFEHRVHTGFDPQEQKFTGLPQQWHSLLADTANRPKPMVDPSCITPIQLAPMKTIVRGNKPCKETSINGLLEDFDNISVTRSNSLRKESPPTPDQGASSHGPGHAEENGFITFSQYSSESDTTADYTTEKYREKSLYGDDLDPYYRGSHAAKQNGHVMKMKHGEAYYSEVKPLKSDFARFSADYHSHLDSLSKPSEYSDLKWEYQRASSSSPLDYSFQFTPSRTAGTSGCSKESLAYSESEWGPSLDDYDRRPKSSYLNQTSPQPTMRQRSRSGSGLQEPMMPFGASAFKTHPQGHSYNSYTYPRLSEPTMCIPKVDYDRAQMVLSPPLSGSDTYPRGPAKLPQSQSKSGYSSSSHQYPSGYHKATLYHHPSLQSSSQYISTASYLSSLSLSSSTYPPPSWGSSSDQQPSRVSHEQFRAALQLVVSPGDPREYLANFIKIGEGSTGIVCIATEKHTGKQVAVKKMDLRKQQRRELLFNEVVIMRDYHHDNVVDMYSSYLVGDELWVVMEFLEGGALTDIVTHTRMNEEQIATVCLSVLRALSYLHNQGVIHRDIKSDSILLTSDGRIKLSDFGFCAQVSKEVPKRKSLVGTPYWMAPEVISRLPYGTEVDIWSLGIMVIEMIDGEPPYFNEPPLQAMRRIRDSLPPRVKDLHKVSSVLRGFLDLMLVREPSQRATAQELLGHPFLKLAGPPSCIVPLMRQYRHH
Sequence of 468 kinases including some pathogenic mutants (Homo sapiens, UniProt P35590) (P35590 22-1138, change not shown): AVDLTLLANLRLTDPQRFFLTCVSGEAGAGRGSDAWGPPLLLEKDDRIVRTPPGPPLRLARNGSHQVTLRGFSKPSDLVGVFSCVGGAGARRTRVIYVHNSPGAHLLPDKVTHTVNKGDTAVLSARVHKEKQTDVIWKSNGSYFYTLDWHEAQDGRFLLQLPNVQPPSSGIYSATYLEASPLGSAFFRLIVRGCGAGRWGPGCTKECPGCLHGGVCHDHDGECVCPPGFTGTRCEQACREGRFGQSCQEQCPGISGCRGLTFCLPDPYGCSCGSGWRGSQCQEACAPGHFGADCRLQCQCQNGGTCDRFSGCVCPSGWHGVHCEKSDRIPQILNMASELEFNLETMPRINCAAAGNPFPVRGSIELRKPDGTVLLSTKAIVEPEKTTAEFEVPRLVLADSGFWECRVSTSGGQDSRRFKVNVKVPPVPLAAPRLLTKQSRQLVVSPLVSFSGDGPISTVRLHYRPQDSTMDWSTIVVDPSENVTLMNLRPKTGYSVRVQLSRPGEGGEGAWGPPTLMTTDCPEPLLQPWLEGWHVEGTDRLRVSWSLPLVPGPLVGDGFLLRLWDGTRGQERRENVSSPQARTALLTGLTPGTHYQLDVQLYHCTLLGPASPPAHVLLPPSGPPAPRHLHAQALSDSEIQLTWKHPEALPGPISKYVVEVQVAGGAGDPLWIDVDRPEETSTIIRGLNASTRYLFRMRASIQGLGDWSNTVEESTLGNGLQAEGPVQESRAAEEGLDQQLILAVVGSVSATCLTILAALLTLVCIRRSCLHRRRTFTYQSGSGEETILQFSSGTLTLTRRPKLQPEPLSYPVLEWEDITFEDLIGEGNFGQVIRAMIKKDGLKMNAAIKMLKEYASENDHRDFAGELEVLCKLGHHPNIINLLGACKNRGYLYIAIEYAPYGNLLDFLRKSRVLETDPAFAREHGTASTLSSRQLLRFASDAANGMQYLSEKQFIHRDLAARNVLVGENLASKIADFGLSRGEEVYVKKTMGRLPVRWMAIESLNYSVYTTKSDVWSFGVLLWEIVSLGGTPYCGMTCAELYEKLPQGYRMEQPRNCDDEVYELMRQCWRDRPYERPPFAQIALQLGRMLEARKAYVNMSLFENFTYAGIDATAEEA
Sequence of 468 kinases including some pathogenic mutants (Homo sapiens, UniProt Q8TDX7) (Q8TDX7 whole entry, change not shown): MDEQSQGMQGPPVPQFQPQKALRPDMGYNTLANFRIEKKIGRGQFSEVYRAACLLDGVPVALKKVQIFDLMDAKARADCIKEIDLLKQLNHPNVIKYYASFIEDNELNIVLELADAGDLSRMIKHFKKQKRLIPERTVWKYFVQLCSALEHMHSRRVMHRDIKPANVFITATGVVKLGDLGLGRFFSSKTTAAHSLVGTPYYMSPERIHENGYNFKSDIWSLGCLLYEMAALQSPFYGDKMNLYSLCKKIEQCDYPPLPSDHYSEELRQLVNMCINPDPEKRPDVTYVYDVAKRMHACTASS
Sequence of 468 kinases including some pathogenic mutants (Homo sapiens, UniProt P36896) (P36896 24-505, change not shown): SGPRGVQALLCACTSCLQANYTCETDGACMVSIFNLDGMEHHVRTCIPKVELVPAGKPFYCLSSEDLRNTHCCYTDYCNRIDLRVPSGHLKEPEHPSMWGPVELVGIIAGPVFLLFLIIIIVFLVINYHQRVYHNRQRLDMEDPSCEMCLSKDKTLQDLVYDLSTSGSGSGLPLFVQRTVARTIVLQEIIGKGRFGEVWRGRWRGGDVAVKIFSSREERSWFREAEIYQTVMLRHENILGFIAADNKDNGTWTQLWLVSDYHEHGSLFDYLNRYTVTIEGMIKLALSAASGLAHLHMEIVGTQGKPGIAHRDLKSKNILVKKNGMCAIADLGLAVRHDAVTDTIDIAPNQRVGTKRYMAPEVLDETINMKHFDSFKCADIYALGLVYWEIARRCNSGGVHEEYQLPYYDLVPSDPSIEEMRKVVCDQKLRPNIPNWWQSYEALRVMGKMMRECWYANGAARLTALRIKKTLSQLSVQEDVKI
Sequence of 468 kinases including some pathogenic mutants (Homo sapiens, UniProt Q9UQB9) (Q9UQB9 whole entry, change not shown): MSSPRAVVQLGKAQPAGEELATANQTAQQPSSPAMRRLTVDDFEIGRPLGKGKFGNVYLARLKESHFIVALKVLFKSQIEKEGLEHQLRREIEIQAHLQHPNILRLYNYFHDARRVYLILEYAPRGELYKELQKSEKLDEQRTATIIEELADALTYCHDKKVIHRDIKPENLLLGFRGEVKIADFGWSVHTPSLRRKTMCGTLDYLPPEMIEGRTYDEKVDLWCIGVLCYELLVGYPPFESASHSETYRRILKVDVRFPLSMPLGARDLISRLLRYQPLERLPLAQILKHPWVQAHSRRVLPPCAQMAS
Sequence of 468 kinases including some pathogenic mutants (Homo sapiens, UniProt Q86UE8) (Q86UE8 whole entry, change not shown): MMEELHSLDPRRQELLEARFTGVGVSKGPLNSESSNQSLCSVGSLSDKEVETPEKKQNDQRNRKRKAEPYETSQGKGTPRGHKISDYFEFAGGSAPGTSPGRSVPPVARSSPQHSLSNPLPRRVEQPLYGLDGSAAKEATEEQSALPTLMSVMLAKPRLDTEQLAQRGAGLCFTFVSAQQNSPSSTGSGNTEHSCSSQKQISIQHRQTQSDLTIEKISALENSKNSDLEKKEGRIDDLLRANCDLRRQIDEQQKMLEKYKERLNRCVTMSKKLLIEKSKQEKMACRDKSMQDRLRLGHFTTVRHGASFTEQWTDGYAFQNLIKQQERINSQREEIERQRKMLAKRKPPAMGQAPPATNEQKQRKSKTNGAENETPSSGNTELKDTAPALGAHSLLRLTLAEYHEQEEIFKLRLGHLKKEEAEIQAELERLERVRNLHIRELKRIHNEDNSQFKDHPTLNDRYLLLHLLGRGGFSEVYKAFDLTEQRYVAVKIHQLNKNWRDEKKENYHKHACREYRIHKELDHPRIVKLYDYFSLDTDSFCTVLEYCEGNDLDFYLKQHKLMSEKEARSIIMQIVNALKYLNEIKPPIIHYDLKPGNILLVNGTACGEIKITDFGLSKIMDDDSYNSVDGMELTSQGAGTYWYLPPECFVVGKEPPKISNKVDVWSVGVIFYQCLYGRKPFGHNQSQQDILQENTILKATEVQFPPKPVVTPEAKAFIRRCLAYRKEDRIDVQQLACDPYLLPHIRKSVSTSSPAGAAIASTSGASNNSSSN
Sequence of 468 kinases including some pathogenic mutants (Homo sapiens, UniProt Q8IY84) (Q8IY84 whole entry, change not shown): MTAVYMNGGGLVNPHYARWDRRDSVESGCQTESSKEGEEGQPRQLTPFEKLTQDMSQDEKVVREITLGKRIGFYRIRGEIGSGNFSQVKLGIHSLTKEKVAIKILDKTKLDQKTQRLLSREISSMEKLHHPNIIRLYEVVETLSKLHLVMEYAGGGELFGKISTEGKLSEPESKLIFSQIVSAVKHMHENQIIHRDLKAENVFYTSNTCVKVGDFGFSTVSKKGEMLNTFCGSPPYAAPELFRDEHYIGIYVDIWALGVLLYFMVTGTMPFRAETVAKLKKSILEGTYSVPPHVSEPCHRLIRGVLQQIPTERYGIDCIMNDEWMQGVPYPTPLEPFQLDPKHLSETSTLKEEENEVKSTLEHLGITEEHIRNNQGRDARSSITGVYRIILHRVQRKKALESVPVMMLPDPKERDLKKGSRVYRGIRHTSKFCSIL

Compound: CN1C(=O)[C@@H](N2CCc3c(nn(Cc4ccccc4)c3C(N)=O)C2=O)COc2cc(Cl)ccc21 [Compound 10, (S)-2-benzyl-6-(8-chloro-5-methyl-4-oxo-2,3,4,5-tetrahydrobenzo[b][1,4]oxazepin-3-yl)-7-oxo-4,5,6,7-tetrahydro-2H-pyrazolo[3,4-c]pyridine-3-carboxamide]
- remaining activity at 0.1 µM [1]: 73%
- remaining activity at 0.1 µM [2]: 89%
- remaining activity at 0.1 µM [3]: 84%
- Percent Control ([4]; listed as LIJTF500025): 73%
- remaining activity at 0.1 µM ([4]; read-out: Percent Control): 67%
- remaining activity at 1 µM [5]: 100%
- remaining activity at 0.1 µM [6]: 68%
- remaining activity at 1 µM [7]: 100%
- remaining activity at 0.1 µM [8]: 93%
- remaining activity at 0.1 µM [9]: 91%
- remaining activity at 0.1 µM [10]: 95%
- remaining activity at 0.1 µM [11]: 58%
- remaining activity at 0.1 µM [12]: 77%
- remaining activity at 0.1 µM [13]: 80%
- remaining activity at 0.1 µM [14]: 100%
- remaining activity at 1 µM [15]: 100%
- remaining activity at 1 µM [16]: 100%
- remaining activity at 0.1 µM [17]: 67%
- remaining activity at 1 µM [18]: 100%
- remaining activity at 0.1 µM [19]: 79%
- remaining activity at 0.1 µM [20]: 100%
- remaining activity at 0.1 µM [21]: 72%
- remaining activity at 1 µM [22]: 100%
- remaining activity at 0.1 µM [23]: 86%
- remaining activity at 1 µM ([24]; RPS6KA4(Kin.Dom.1-N-terminal) (Entrez RPS6KA4)): 100%
- remaining activity at 1 µM ([24]; RPS6KA4(Kin.Dom.2-C-terminal) (Entrez RPS6KA4)): 100%
- remaining activity at 0.1 µM [25]: 88%
- remaining activity at 1 µM [26]: 100%
- remaining activity at 0.1 µM [27]: 92%
- remaining activity at 0.1 µM [28]: 95%
